Test results from paper PMC9256669, “Monomethyl auristatin antibody and peptide drug conjugates for trimodal cancer chemo-radio-immunotherapy” (Nature Communications, 2022).
Several values for one entry are separate records, joined by “and”; a condition that tells them apart may be missing. Identical values can stand only once. Non-standard residues stand in square brackets, D forms with d. Residues, ends and D or L forms follow the SMILES beside them. *: point of attachment. Dolaproine = CO[C@@H]([C@@H]1CCCN1)[C@@H](C)C(=O)O; Dil = CC[C@H](C)[C@H](NC)[C@@H](CC(=O)O)OC; X1 = C[C@@H](N*)[C@@H](O)c1ccccc1; NMeV = CN[C@H](C(=O)O)C(C)C

Legend:
B16 cells [1] = assay: Cell surface binding of Cy5-labeled ADCs by flow cytometry; type: cell-based, murine
Method: Murine cancer cells incubated on ice with Cy5 labeled ADC, bound Cy5 signal measured
by flow cytometry. Mean fluorescent intensity measured and subtracted from baseline fluorescence of saline incubated cells for each cell line. Data representative of 3

MOC1 = assay: Cytotoxicity, Alamar Blue assay; type: cell-based, murine; conditions: for sensitivity in cell culture, Alamar Blue assay: MOC1 and MOC2 cells, cell viability at 72 hr of drug exposure, CDX3379 at nM dosing
Method: Murine colorectal (MC38 (ENH204-FP)) cancer cell lines were obtained from Kerafast. Murine head and neck MOC1 and MOC2 were generously provided by Dr. R. Uppaluri. CAL27 PIK3CA H1047R expressing cells and 4MOSC1 cells were generated in Dr. Gutkind’s laboratory and previously characterized[42],[55]. […] MC38 cells were cultured in DMEM supplemented with 10% FBS, 1 mM sodium pyruvate (Gibco), 1% non-essential amino acids (Gibco), and 10 mM HEPES (Gibco). MOC1 and MOC2 cells were cultured in IMDM (Lonza)/F-12K nutrient mixture at a 2:1 mixture with 5% FBS, 5 ng/ml EGF (EMD Millipore), 400 ng/ml hydrocortisone (Sigma), and […] insulin (Sigma). On receipt, each cell line was expanded, cryopreserved as low passage stocks, and routinely tested for mycoplasma. Cisplatin (Enzo Biosciences), paclitaxel (Sigma), and MMAE (Concortis) were reconstituted in DMSO. […] Clinical grade cetuximab (Erbitux, Lilly Medical) was obtained from UCSD Moores Cancer Center Pharmacy.
Cells were plated in 96-well plates and exposed to a drug concentration range for 72 h. Alamar Blue was added to the cells and allowed to incubate for 2–4 h at 37 °C. Plates were analyzed using a plate reader with fluorescence measured at 560 nm. Fractional survival was normalized to untreated control cell fluorescent values. Drug IC50 was calculated using Prism software (GraphPad, La Jolla, CA). Cell viability, cytotoxicity and apoptosis were also measured by ApoTox-Glo Triplex Assay (Promega).
measured by Alamar Blue assay. For Alamar Blue assay cytotoxicity, we measured cell viability at 72 hr of […]

B16 tumors [2] = assay: Subcutaneous tumor therapy with CD8 T cell depletion; type: in vivo, C57BL/6 mice; conditions: MMAE conjugate + IR, anti-CD8 antibody 10 mg/kg vs control
Method: MOC1, B16, LL/2, and MC38 tumor cells were injected subcutaneously into the hindlimbs of 6-week-old female C57BL/6 albino mice in 100 µl of 1:1 Matrigel (BD) and PBS solution. Fractionated IR was delivered focally to the tumor-bearing hindlimbs (3 Gy to MC38 tumors and 5 Gy to LL/2 and B16 tumors) as indicated in figure legends using a PXI X-RAD 225 XL irradiator at maximal dose rate of 3 Gy/min with a beam-conditioning aluminum filter (Precision X-ray Irradiation). For RAG1 KO studies, 6-week-old female Rag1^tm1Mom mice were injected subcutaneously with tumor cells in their hindlimbs (Jackson Labs). For CD8 depletion studies, mice were i.p. injected with anti-CD8 (BioXCell #BE0117) at 10 mg/kg on days −6, −5 and −4 tumor cell implant and then weekly starting on day after tumor cells were injected or control antibody. […] Tumor volumes were measured and calculated using the formula as ½ * length * width^2. Mice were sacrificed when tumor volume reached >1500 mm^3, maximal tumor volume approved on our protocol for subcutaneous tumors.

B16 tumors [3] = type: in vivo, C57BL/6 mice
Method: At harvest, tumors were isolated, minced, and re-suspended in FBS-free DMEM media supplemented with components of MACs tumor dissociation kit. Tissues were incubated for 15 min at 37 °C and mechanically digested using the gentle MACs Octo dissociator. Tissue suspensions were washed with fresh media and passed through a 100-µm strainer. Samples were split in half for immediate staining or stimulated with the Biolegend Cell Activation Cocktail (with Brefeldin A) for 3 h. Samples were washed with PBS and immediately processed for live/dead cell discrimination using BD LIVE/DEAD™ Fixable Blue Dead Cell Stain Kit. Cells were washed and stained for surface markers for 30 min at 4 °C. Intracellular staining was performed using the eBioscience FOXP3/Transcription Factor Buffer Set from Invitrogen and stained with intracellular antibodies. […] All antibodies were validated by the supplier. All flow cytometry data acquisition was done using BD LSRFortessa and analyzed using FlowJo software. Immune cells were identified by the following characteristics: cytotoxic T cells (CD45+Thy1.2+CD8+), helper T cells (CD45+Thy1.2+CD4+), NK cells (CD45+Thy1.2−NK1.1+).
FSC-A FSC-H SCC-H Live Dead-Blue
Representative flow cytometry plots to gate immune cells quantitated in Fig. 4a, b, 4d &
Supplementary Fig. 10b, c. b) Quantification of tumor immune cell identified by flow cytometry on
Tumors harvested on day 19 and immune cells characterized by flow cytometry. c) Tumor
Mice implanted with tumor
Source data are provided in Source Data file.

B16 cells [4] = assay: Cell cycle analysis; type: cell-based, murine; conditions: for G2/M fraction: Figure 3c, single replicates
Method: Cells were MMAE treated for 24 h, fixed in 70% ethanol, stained with FxCyclePI/RNase solution (Life Technologies), and then analyzed by FACS using FlowJo software.

| Compound | cell surface binding to B16 cells (B16 cells [1]) | sensitivity in cell culture, Alamar Blue assay (MOC1) | effect of CD8 T cell depletion on tumor control (B16 tumors [2]) | tumor CD8 T cell infiltration, with IR (B16 tumors [3]; B16 tumors, flow cytometry, drug + IR) | Flow cytometry (Figure 4b) (B16 tumors [3]; without IR, individual tumors) | G2/M fraction (B16 cells [4]; MMAE 1 nM) | G2/M fraction (B16 cells [4]; MMAE 2 nM) | G2/M fraction (B16 cells [4]; MMAE 5 nM) | G2/M fraction (B16 cells [4]; MMAE 10 nM) | cell cycle effect (B16 cells [4]; MMAE-treated cells) | IC50 (MOC1; MOC1, 72 h drug exposure, Alamar Blue, one value per biological replicate, read-out: IC50 values) | Flow cytometry, CD4+ (B16 tumors [3]; mouse, in vivo) | Flow cytometry, CD45+ (B16 tumors [3]; mouse, in vivo) | Flow cytometry, CD45 negative (B16 tumors [3]; mouse, in vivo) | Flow cytometry, NK cells (B16 tumors [3]; mouse, in vivo) |
| --- | --- | --- | --- | --- | --- | --- | --- | --- | --- | --- | --- | --- | --- | --- | --- |
| CDX3379-MMAE: anti-HER3 antibody CDX3379 with 4 MMAE per antibody via MC-VC-PABC linker, labeled with Cy5 | dose response cell surface binding | sensitive | significantly larger | significantly increased CD8 tumor cell infiltration | 3.89 and 16.51 and 9.62 | – | – | – | – | – | – | – | – | – | – |
| CC[C@H](C)[C@@H]([C@@H](CC(=O)N1CCC[C@H]1[C@H](OC)[C@@H](C)C(=O)N[C@H](C)[C@@H](O)c1ccccc1)OC)N(C)C(=O)[C@@H](NC(=O)[C@@H](NC)C(C)C)C(C)C [MMAE, monomethyl auristatin E] (H-[NMeV]V[Dil][Dolaproine]-X1) | – | sensitive | – | – | – | 0.13 and 0.12 | 0.12 and 0.14 | 0.23 and 0.25 | 0.73 and 0.76 | arresting cells in the radiosensitive mitotic phase of the cell cycle | 7.93 nM and 8.71 nM and 8.36 nM and 9.59 nM | – | – | – | – |
| cyclo(RGD)fc-MC-HN-peg8-e9-oPLGC(Me)AG-r9-c-(MC-VC-PABC-MMAE)-CONH2 [ACPP-MMAE] | – | – | abrogated durable tumor control | – | – | – | – | – | – | – | – | 0.17 and 0.11 | 9.46 and 7.71 | 89.90 and 91.80 | 0.17 and 0.11 |
